In patent publication US20210079358A1, “ASSEMBLOID - 3D MIMETIC TISSUE STRUCTURE BASED ON PATIENT- DERIVED MULTIPLE CELL TYPES AND METHOD OF MANUFACTURING THE SAME” (POSTECH Research and Business Development Foundation, priority 2019, published 2021):
“Also recorded” adds a separate entry of the source.

How the values were obtained:
[1] = tested on: 3D bioprinted patient-derived bladder tumor organoids; test: Tumor growth of 3D bioprinted patient-derived bladder tumor organoids treated with SAG or FK506; format: cell-based, human
Method: Tumor cells derived from patient-derived bladder tumor organoids were embedded in 40 μL Matrigel at a density of 5×10^5 cells/mL, and cultured in an organoid culture medium for 10 days. To prepare a bio-ink mixture for the reconstitution of tumor organoids with stroma by 3D bioprinting, 6 wells containing the embedded tumor organoids were treated with 0.5 mg/mL of a collagenase/dispase solution at 37° C. for 30 minutes, washed and centrifuged. The collected organoids were resuspended in 1 mL Matrigel (Growth Factor Reduced) containing patient-derived CAFs and HULECs at 4×10^7 cells/mL and 4×10^6 cells/mL, respectively. The reconstituted bio-ink was put into a sterilized 10 mL syringe with a 20-gauge needle, and stored on ice for less than 5 minutes before printing. A jet-type 3D printer (in vivo, Rokit, Korea) was used to reconstitute tumor organoids with stroma as described above. A G-code based script was written by Creator K software (Rokit, Korea) to print a 5×6 array of 10 μL drops. Each drop was dispensed on a parafilm at 8-mm intervals by extrusion. […]

[2] = tested on: patient-derived bladder tumor organoids; test: Growth of patient-derived bladder tumor organoids with or without tumor stroma treated with Hh or Bmp agonist; format: cell-based, human; details: 300 nM SAG, 7 days
Method: Tumor tissues obtained from patients were washed with DPBS, and then washed twice with DMEM supplemented with 10% FBS. The washed tumors were minced and incubated in DMEM containing 10% FBS and collagenase I and II (20 mg/mL each) at 37° C. for 1 hour and ground for 5 minutes every 30 minutes. The isolated tissues were spun down at 1,500 rpm for 5 minutes, resuspended in ACK lysis buffer, and then incubated for 5 minutes at room temperature. Dissociated clusters were washed with DMEM containing 10% FBS and filtered through a 100 μm cell strainer. The dissociated cell clusters were spun down, resuspended in Matrigel (Growth Factor reduced) and plated in the middle of one well of a 6-well plate. The plated drop was solidified in an incubator at 37° C. for 15 minutes, and a 2.5 mL organoid medium [advanced DMEM/F-12 supplemented with 10 mM HEPES (pH 7.4), 10 mM nicotinamide, 1 mM N-acetyl-L-cysteine, GlutaMAX, 1% penicillin/streptomycin, 50 ng/mL mouse EGF, 0.5×B-27, 1 mM A8301 and 10 mM Y-27632] was added to the well. The medium was replaced once every 2 to 3 days. For passaging, 1 mg/mL collagenase/dispase was added to the medium, followed by incubation for 1 hour at 37° C. to digest the Matrigel. Subsequently, organoids were centrifuged at 1,500 rpm for 3 minutes, washed with PBS, and then spun down. Then, 0.05% trypsin-EDTA (Welgene) was added, organoids were incubated at 37° C. for 5 minutes, followed by mechanical grinding into small cells by pipetting. The organoids were passaged in a 1:3 or 1:4 ratio every 1 to 2 weeks.
To generate patient-derived tumor organoids with stroma, human tumor organoids were cultured for 10 days, and mixed with stromal components containing patient-derived CAFs and HULECs at concentrations of 5×10^4 cells/μL and 4×10^3 cells/μL, respectively, in Matrigel. And then, 5 μL drops of tumor organoids with stroma were cultured in an organoid medium in a spinning bioreactor for 7 days. […]

[3] = tested on: BBN-induced mouse bladder tumor organoids; test: Growth of BBN-induced mouse bladder tumor organoids treated with SAG or FK506; format: cell-based; details: reconstituted mouse tumor organoids with stroma
[4] = tested on: reconstituted bladder organoids with stroma; test: Cell proliferation in reconstituted bladder organoids with stroma under Hh pathway manipulation; format: cell-based, mouse; details: 50 μM Vismodegib or 100 nM SAG vs DMSO, 7 days
Method: (§1) To generate normal bladder organoids with stroma, normal bladder organoids cultured for a long time (>6 months) were mixed with mouse embryonic fibroblasts (MEFs) and endothelial cells (HULEC, ATCC) at 3.75×10^4 cells/μL and 5×10^3 cells/μL, respectively, along with 3 to 4 μL of Matrigel. Before additional analysis, these bladder organoids with stroma were cultured in an organoid medium in a spinning bioreactor for 7 days. The 12-well version of the spinning bioreactor was manufactured by 3D printing according to the method described in Qian, X. et al. Brain-Region-Specific Organoids Using Mini-bioreactors for Modeling ZIKV Exposure. Cell 165, 1238-1254, doi:10.1016/j.cell. 2016.04.032 (2016). In brief, individual components such as a plate cover (Project MJP 2500, 3D Systems, USA), a rotating shaft (Single Plus, Cubicon, Korea), a fixed rod (Single Plus, Cubicon, Korea) and a gear (Single Plus, Cubicon, Korea) were printed using a 3D printer in a stackable version, and the components were assembled to manufacture a spinning bioreactor. […]
(§2) Normal bladder organoids were treated with 50 μM Vismodegib (Abmole), 100 nM SAG (Millipore) or DMSO and cultured in a spinning bioreactor for 7 days. […] Capase-3/7-stained cells in the bladder tumor organoids were counted based on green fluorescence signals, and dose-response curves were generated using GraphPad Prism ver.6. […]

[5] = tested on: three-layered miniature bladders; test: Cell proliferation in three-layered miniature bladders under Hh pathway manipulation; format: cell-based, mouse; details: 50 μM Vismodegib or 100 nM SAG vs DMSO, 7 days
Method: as §1, §2

[6] = tested on: 3D bioprinted patient-derived bladder tumor organoids; test: Tumor cell apoptosis (caspase3) in 3D bioprinted patient-derived bladder tumor organoids treated with cisplatin; format: cell-based, human; details: luminal and basal tumor-derived printed tumor organoids
Method: Normal bladder organoids were treated with 50 μM Vismodegib (Abmole), 100 nM SAG (Millipore) or DMSO and cultured in a spinning bioreactor for 7 days. Bladder tumor organoids were treated with 300 nM SAG, 5 μM FK506 (Cayman Chemical) or DMSO, and cultured in a spinning bioreactor for 7 days. Human bladder tumor organoids were cultured in an organoid medium for 7 days in a spinning bioreactor before treatment with chemotherapeutic drugs. Subsequently, tumor organoids were cultured for 48 hours in the presence of cisplatin (0, 0.2, 0.5, 1, 2, 5, 10, 50 and 100 μm, Sigma), gemcitabine (0, 0.2, 0.5, 1, 2, 5, 10, 50 and 100 μM, Sigma) or mitomycin C (0, 0.2, 0.5, 1, 2, 5, 10, 50 and 100 μM, Sigma). To produce dose-response curves for the three chemotherapeutic drugs, cell viability was assayed using a CellEvent™ Caspase-3/7 Green Detection Reagent (Thermo Fisher) according to the manufacturer's instructions. Forty-eight hours after treatment with cell therapeutic agent, bladder tumor organoids were fixed in 4% PFA at 4° C. for 15 minutes, washed with PBS three times, cultured in 30% sucrose overnight, and embedded in an OCT compound. Capase-3/7-stained cells in the bladder tumor organoids were counted based on green fluorescence signals, and dose-response curves were generated using GraphPad Prism ver.6. […]

SMILES | tumor growth ([1]; bioprinted basal, only in the presence of stroma) | tumor growth ([1]; bioprinted, luminal P-1 tumor, regardless of tumor stroma) | growth of reconstituted tumor organoids of basal subtypes ([2]; basal P-2 and P-3, in the presence of tumor stroma) | response of basal subtype tumor organoids ([2]; basal subtype, without tumor stroma) | response of reconstituted luminal tumor organoids ([2]; reconstituted luminal tumor organoids) | tumor growth [3] | proliferation of epithelial cells and stromal cells [4] | proliferation of epithelial cells and stromal cells [5] | tumor cell apoptosis response ([6]; reconstituted with tumor stroma) | tumor cell apoptosis ([6]; without tumor stroma)
CNC1CCC(N(Cc2cccc(-c3ccncc3)c2)C(=O)c2sc3ccccc3c2Cl)CC1 (stereo not drawn) [SAG] | significantly inhibited | does not exhibit a significant change | significantly reduced | do not respond | do not respond | inhibited | significant increase | increases | – | –
CS(=O)(=O)c1ccc(C(=O)Nc2ccc(Cl)c(-c3ccccn3)c2)c(Cl)c1 [Vismodegib] | – | – | – | – | – | – | significant decrease | decreases; also recorded: reduces | – | –
N.N.[Cl][Pt][Cl] [cisplatin] | – | – | – | – | – | – | – | – | significantly reduced | increased
